Article PMC2762193 (Journal of the American Chemical Society, 2009)

Target: wtTaq polymerase (Thermus aquaticus, UniProt P19821)
Experiment: gel-based steady-state single nucleotide incorporation, […]-labelled primer
Format: biochemical
Settings: 1 x Taq buffer, 60 °C

Chain of wtTaq polymerase (P19821 whole entry): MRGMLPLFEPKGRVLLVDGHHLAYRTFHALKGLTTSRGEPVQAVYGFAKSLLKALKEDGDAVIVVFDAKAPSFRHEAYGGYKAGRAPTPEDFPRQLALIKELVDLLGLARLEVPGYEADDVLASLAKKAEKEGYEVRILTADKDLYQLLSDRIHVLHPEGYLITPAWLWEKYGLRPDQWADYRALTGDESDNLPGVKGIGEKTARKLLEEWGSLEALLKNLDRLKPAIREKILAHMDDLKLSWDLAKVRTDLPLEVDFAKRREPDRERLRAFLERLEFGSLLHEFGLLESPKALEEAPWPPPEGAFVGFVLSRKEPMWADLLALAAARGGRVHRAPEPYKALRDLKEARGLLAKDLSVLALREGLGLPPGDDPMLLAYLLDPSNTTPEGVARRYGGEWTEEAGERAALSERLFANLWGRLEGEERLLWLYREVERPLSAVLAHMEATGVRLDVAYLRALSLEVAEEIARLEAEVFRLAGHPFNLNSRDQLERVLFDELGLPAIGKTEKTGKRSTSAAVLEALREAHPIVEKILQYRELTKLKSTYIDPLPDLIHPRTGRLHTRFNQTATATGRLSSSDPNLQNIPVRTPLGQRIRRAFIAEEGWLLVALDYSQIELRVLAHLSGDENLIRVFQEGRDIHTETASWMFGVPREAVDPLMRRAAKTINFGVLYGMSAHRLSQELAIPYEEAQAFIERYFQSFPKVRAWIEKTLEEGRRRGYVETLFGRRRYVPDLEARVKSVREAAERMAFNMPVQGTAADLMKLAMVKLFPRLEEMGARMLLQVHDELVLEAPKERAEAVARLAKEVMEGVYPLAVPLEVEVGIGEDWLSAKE

SMILES: Cc1cn([C@H]2C[C@H](O)[C@@H](COP(=O)(O)OP(=O)(O)OP(=O)(O)O)O2)c(=O)[nH]c1=O [dTTP]
- Km (opposite template dA): incorporation of dTTP opposite dA or dGTP opposite dC

SMILES: Nc1nc2c(ncn2[C@H]2C[C@H](O)[C@@H](COP(=O)(O)OP(=O)(O)OP(=O)(O)O)O2)c(=O)[nH]1 [dGTP]
- Km (opposite template dC): incorporation of dTTP opposite dA or dGTP opposite dC

SMILES: Nc1ncnc2c1ncn2[C@H]1C[C@H](O)[C@@H](COP(=O)(O)OP(=O)(O)OP(=O)(O)O)O1 [dATP]
- Km (opposite template d5NI or d5NIC): incorporation of dNTPs opposite template d5NIC
